# Data: patent US7625891B2, “Heterocylic antiviral compounds” (Roche Palo Alto LLC, priority 2007, dated 2009)
# Legend:
# CCR5 = CCR5 (Homo sapiens, UniProt P51681); experiment: Human CCR5 receptor-ligand binding assay (125I RANTES, CHO-Gα16-hCCR5 cells); parameters: expressed in transfected cells; details: specific 125I RANTES binding, CHO-Gα16-hCCR5 cells; read-out: IC50
# Method: The construct was transfected into CHO-Gα16 cells by using Fugene Reagent (Roche).
# Adherent cells in […] tissue culture flask (ca. 90% confluent) were harvested using 1 mM EDTA in PBS (phosphate-buffered saline) without Ca^2+ and Mg^2+. Cells were washed twice with PBS containing no Ca^2+ and Mg^2+.
# Eighty μl CHO-Gα16-hCCR5 (1×10^6/mL) cells were added to 96 well plates.
# The compound dilutions were made in PBS, 1% BSA. Total reaction volume was 100 μl per well. The test compounds were added to the cells prior to the addition of radioligand.
# After incubation, the cells were harvested onto GF/C filter plates using Packard cell harvester. Filters were pretreated with 0.3% PEI/0.2% BSA for 30 min. The filter plate was washed rapidly 5 times with 25 mM HEPES, 500 mM NaCl, 1 mM CaCl2 and 5 mM MgCl2 adjusted to pH 7.1. Plates were dried in oven (70° C.) for 20 min, added with 40 μl scintillation fluid and sealed with Packard TopSeal-A. Packard Top Count was used to measure of the radioactivity for 1 min per well.
# Total binding was determined with control wells added with radioisotope and buffer and the non-specific binding was determined using an excess cold RANTES to some of the control wells. Specific binding was determined by subtracting the non-specific form total binding. […] IC50 values were determined using varying concentrations of the test ligand in triplicates and the data was analyzed using GraphPad Prism (GraphPad, San Diego, Calif.).
# L1.2hCCR5 cells = experiment: Chemotaxis assay; format: cell-based; details: Homo sapiens; Inhibition of RANTES stimulated chemotaxis
# Source text: The chemotaxis assay is a functional assay which measures the ability of a non-adherent cell line expressing human CCR5 receptor to migrate across a membrane in response to either test compounds or natural attractant ligand(s) (i.e., RANTES, MIP-1β). Generally, chemotaxis assays monitor the directional movement or migration of a suitable cell (such as a leukocyte (e.g., lymphocyte, eosinophil, basophil)) into or through a barrier (e.g., endothelium, a permeable filter membrane), toward, from a first surface of the barrier toward an opposite second surface containing attractant ligands. Membranes or filters provide convenient barriers to monitor the directional movement or migration of a suitable cell into or through a filter, toward increased levels of an attractant. In some assays, the membrane is coated with a substance to facilitate adhesion, such as ICAM-1, fibronectin or collagen. Such assays provide an in vitro approximation of leukocyte “homing”. […] The filter is then removed and the density of the cells that have migrated to the bottom wells is detected using CyQUANT^R cell proliferation assay kit (Invitrogen) and the Spectra MAX GeminiXS plate reader (Molecular Devices) according to the manufacturers' instructions. Using the fluorescence measurements the percent migration is determined by % migration=[1−(max−obs)/(max−min)]×100. […] This is calculated with Excel Fit.
# Chain of CCR5 (P51681 whole entry): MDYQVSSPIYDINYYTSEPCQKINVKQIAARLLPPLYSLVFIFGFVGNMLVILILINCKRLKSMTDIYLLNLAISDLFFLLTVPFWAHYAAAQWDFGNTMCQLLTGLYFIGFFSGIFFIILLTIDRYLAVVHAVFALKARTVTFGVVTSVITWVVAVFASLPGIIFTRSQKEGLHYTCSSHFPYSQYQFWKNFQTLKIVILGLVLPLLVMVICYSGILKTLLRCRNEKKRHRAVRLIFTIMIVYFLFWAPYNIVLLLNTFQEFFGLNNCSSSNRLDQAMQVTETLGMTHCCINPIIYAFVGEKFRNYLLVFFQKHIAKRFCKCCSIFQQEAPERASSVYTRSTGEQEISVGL
smiles,measurement,setting,value
"CCCCC1CN(C[C@H]2CC[C@@H](OC)CC2)C(=O)OC12CCN(C1(C)CCN(C(=O)c3c(C)ncnc3C)CC1)CC2 (relative stereo) [Compound I-2, 5-Butyl-9-[1-(4,6-dimethyl-pyrimidine-5-carbonyl)-4-methyl-piperidin-4-yl]-3-(cis-4-methoxy-cyclohexylmethyl)-1-oxa-3,9-diaza-spiro[5.5]undecan-2-one]",IC50,CCR5,16.2 nM
same,IC50,L1.2hCCR5 cells,237 nM
